Measurements as given in ChEMBL document CHEMBL4346707, “Synthesis and biological evaluation of pyrazolo[3,4-b]pyridine-3-yl pyrimidine derivatives as sGC stimulators for the treatment of pulmonary hypertension” (Eur J Med Chem, 2019).
The source made the active and inactive calls. No cut-off for these calls is given here.

What was measured:
[1] = Stimulatory activity at sGC in Sprague-Dawley rat thoracic aorta assessed as inhibition of norepinephrine-induced contraction by JZ100 strain guages based isometric analysis
[2] = species on record: Rattus norvegicus; experiment: Stimulatory activity at sGC in Sprague-Dawley rat thoracic aorta assessed as inhibition of norepinephrine-induced contraction at 1 uM by JZ100 strain guages based isometric analysis relative to control; set-up: scale not given: the % may be the effect or the level left
[3] = tested on: Heart; experiment: Cardioprotective activity in Langendorff perfused Sprague-Dawley rat heart assessed as reduction of coronary perfusion pressure; assay type: functional, tissue-based
[4] = tested on: Heart; experiment: Cardioprotective activity in Langendorff perfused Sprague-Dawley rat heart assessed as increase in coronary artery blood flow; assay type: functional, tissue-based
[5] = tested on: Heart; experiment: Cardioprotective activity in Langendorff perfused Sprague-Dawley rat heart assessed as reduction of coronary perfusion pressure at 0.01 to 3 uM relative to control; assay type: functional
[6] = tested on: Heart; experiment: Cardioprotective activity in Langendorff perfused Sprague-Dawley rat heart assessed as increase in coronary artery relaxation; assay type: functional, tissue-based
[7] = Apparent clearance in male Beagle dog at 4.5 mg/kg, po by LC-MS/MS analysis; assay type: ADME, organism-based, Canis lupus familiaris; conditions: in vivo, read-out: CL(app) (converted)
[8] = Tmax in female Beagle dog at 0.5 mg/kg, po by LC-MS/MS analysis; assay type: ADME, organism-based, Canis lupus familiaris; conditions: in vivo
[9] = Cmax in male Beagle dog at 1.5 mg/kg, po by LC-MS/MS analysis; assay type: ADME, organism-based, Canis lupus familiaris; set-up: dose 1.5 mg/kg, route oral; conditions: in vivo
[10] = Cmax in male Beagle dog at 0.5 mg/kg, po by LC-MS/MS analysis; assay type: ADME, organism-based, Canis lupus familiaris; set-up: dose 0.5 mg/kg, route oral; conditions: in vivo
[11] = Oral bioavailability (0 to infinity) in male Beagle dog at 0.5 mg/kg by LC-MS/MS analysis; assay type: ADME, organism-based, Canis lupus familiaris; conditions: in vivo
[12] = Apparent volume of distribution in male Beagle dog at 0.5 mg/kg, po by LC-MS/MS analysis; assay type: ADME, organism-based, Canis lupus familiaris; conditions: in vivo
[13] = Tmax in male Beagle dog at 4.5 mg/kg, po by LC-MS/MS analysis; assay type: ADME, organism-based, Canis lupus familiaris; conditions: in vivo
[14] = tested on: Heart; experiment: Potency index. ratio of EC50 of riociguat to EC50 of compound for cardioprotective activity in Langendorff perfused Sprague-Dawley rat heart assessed as increase in coronary artery relaxation; assay type: functional
[15] = Apparent clearance in male Beagle dog at 0.5 mg/kg, po by LC-MS/MS analysis; assay type: ADME, organism-based, Canis lupus familiaris; conditions: in vivo, read-out: CL(app) (converted)
[16] = AUC (0 to infinity) in male Beagle dog at 0.5 mg/kg, po by LC-MS/MS analysis; assay type: ADME, organism-based, Canis lupus familiaris; set-up: dose 0.5 mg/kg, route oral, time infinity; conditions: in vivo
[17] = Half life in female Beagle dog at 0.5 mg/kg, po by LC-MS/MS analysis; assay type: ADME, organism-based, Canis lupus familiaris; conditions: in vivo
[18] = Apparent volume of distribution in female Beagle dog at 0.5 mg/kg, po; assay type: ADME, organism-based, Canis lupus familiaris; conditions: in vivo
[19] = Tmax in male Beagle dog at 1.5 mg/kg, po by LC-MS/MS analysis; assay type: ADME, organism-based, Canis lupus familiaris; conditions: in vivo
[20] = Apparent clearance in male Beagle dog at 1.5 mg/kg, po by LC-MS/MS analysis; assay type: ADME, organism-based, Canis lupus familiaris; conditions: in vivo, read-out: CL(app) (converted)
[21] = Half life in male Beagle dog at 4.5 mg/kg, po by LC-MS/MS analysis; assay type: ADME, organism-based, Canis lupus familiaris; conditions: in vivo
[22] = Tmax in male Beagle dog at 0.5 mg/kg, po by LC-MS/MS analysis; assay type: ADME, organism-based, Canis lupus familiaris; conditions: in vivo
[23] = Cmax in female Beagle dog at 0.5 mg/kg, po by LC-MS/MS analysis; assay type: ADME, organism-based, Canis lupus familiaris; set-up: dose 0.5 mg/kg, route oral; conditions: in vivo
[24] = AUC (0 to infinity) in male Beagle dog at 1.5 mg/kg, po by LC-MS/MS analysis; assay type: ADME, organism-based, Canis lupus familiaris; set-up: dose 1.5 mg/kg, route oral, time infinity; conditions: in vivo
[25] = AUC (0 to infinity) in male Beagle dog at 4.5 mg/kg, po by LC-MS/MS analysis; assay type: ADME, organism-based, Canis lupus familiaris; set-up: dose 4.5 mg/kg, route oral, time infinity; conditions: in vivo
[26] = Apparent clearance in female Beagle dog at 0.5 mg/kg, po by LC-MS/MS analysis; assay type: ADME, organism-based, Canis lupus familiaris; conditions: in vivo, read-out: CL(app) (converted)
[27] = Half life in male Beagle dog at 1.5 mg/kg, po by LC-MS/MS analysis; assay type: ADME, organism-based, Canis lupus familiaris; conditions: in vivo
[28] = AUC (0 to infinity) in female Beagle dog at 0.5 mg/kg, po by LC-MS/MS analysis; assay type: ADME, organism-based, Canis lupus familiaris; set-up: dose 0.5 mg/kg, route oral, time infinity; conditions: in vivo
[29] = Apparent volume of distribution in male Beagle dog at 1.5 mg/kg, po by LC-MS/MS analysis; assay type: ADME, organism-based, Canis lupus familiaris; conditions: in vivo
[30] = Half life in male Beagle dog at 0.5 mg/kg, po by LC-MS/MS analysis; assay type: ADME, organism-based, Canis lupus familiaris; conditions: in vivo
[31] = Cmax in male Beagle dog at 4.5 mg/kg, po by LC-MS/MS analysis; assay type: ADME, organism-based, Canis lupus familiaris; set-up: dose 4.5 mg/kg, route oral; conditions: in vivo
[32] = Apparent volume of distribution in male Beagle dog at 4.5 mg/kg, po by LC-MS/MS analysis; assay type: ADME, organism-based, Canis lupus familiaris; conditions: in vivo

CCOC(=O)N(C)c1c(N)nc(-c2nn(Cc3sccc3F)c3ncccc23)nc1N
EC50 [1]: 380 nM
Activity [2]: 86.6%

COC(=O)Nc1c(N)nc(-c2nn(Cc3ccc(F)s3)c3ncccc23)nc1N
Activity [2]: 30%

COC(=O)N(C)c1c(N)nc(-c2nn(Cc3cccs3)c3ncccc23)nc1N
Activity [2]: 45.1%

CCOC(=O)Nc1c(N)nc(-c2nn(Cc3ccc(F)s3)c3ncccc23)nc1N
Activity [2]: 57.4%

CCOC(=O)N(CC)c1c(N)nc(-c2nn(Cc3cncc(C)c3)c3ncccc23)nc1N
Activity [2]: 3%

CC(C)OC(=O)Nc1c(N)nc(-c2nn(Cc3ccc(F)s3)c3ncccc23)nc1N
Activity [2]: 17.1%

COC(=O)N(C)c1c(N)nc(-c2nn(Cc3cccnc3F)c3ncccc23)nc1N
Activity [2]: 21.1%

CCOC(=O)N(C)c1c(N)nc(-c2nn(Cc3ccc(F)s3)c3ncccc23)nc1N
Activity [2]: 38.4%

CCOC(=O)N(CC)c1c(N)nc(-c2nn(Cc3sccc3F)c3ncccc23)nc1N
EC50 [1]: 240 nM
Activity [2]: 85.6%

COC(=O)Nc1c(N)nc(-c2nn(Cc3cccnc3F)c3ncccc23)nc1N
Activity [2]: 11.8%

CC(C)OC(=O)N(C)c1c(N)nc(-c2nn(Cc3sccc3F)c3ncccc23)nc1N
Activity [3]: Dose-dependent effect
EC50 [3]: 110 nM
Activity [4]: Active
EC50 [1]: 180 nM
Activity [2]: 75.1%
Emax [5]: 60%
Activity [6]: Active

COC(=O)N(C)c1c(N)nc(-c2nn(Cc3ccc(F)s3)c3ncccc23)nc1N
Activity [2]: 39.2%

CCN(C(=O)OC(C)C)c1c(N)nc(-c2nn(Cc3ccc(F)s3)c3ncccc23)nc1N
Activity [2]: 41%

CC(C)OC(=O)Nc1c(N)nc(-c2nn(Cc3sccc3F)c3ncccc23)nc1N
Activity [2]: 42.3%

COC(=O)N(C)c1c(N)nc(-c2nn(Cc3ccccc3F)c3ncccc23)nc1N [RIOCIGUAT]
EC50 [3]: 270 nM
EC50 [1]: 300 nM
Activity [2]: 88.9%

CCN(C(=O)OC)c1c(N)nc(-c2nn(Cc3ccc(F)s3)c3ncccc23)nc1N
Activity [2]: 51.9%

CC(C)OC(=O)N(C)c1c(N)nc(-c2nn(Cc3cccnc3F)c3ncccc23)nc1N
Activity [2]: 1.9%

CCOC(=O)N(C)c1c(N)nc(-c2nn(Cc3cncc(C)c3)c3ncccc23)nc1N
Activity [2]: 47.4%

CCOC(=O)Nc1c(N)nc(-c2nn(Cc3sccc3F)c3ncccc23)nc1N
Activity [2]: 27.3%

CCN(C(=O)OC(C)C)c1c(N)nc(-c2nn(Cc3sccc3F)c3ncccc23)nc1N
EC50 [1]: 870 nM
Activity [2]: 76.2%

CCOC(=O)N(CC)c1c(N)nc(-c2nn(Cc3ccc(F)s3)c3ncccc23)nc1N
Activity [2]: 48.4%

CC(C)OC(=O)Nc1c(N)nc(-c2nn(Cc3cccnc3F)c3ncccc23)nc1N
Activity [2]: 12.5%

COC(=O)N(C)c1c(N)nc(-c2nn(Cc3sccc3F)c3ncccc23)nc1N
CL/F [7]: 103 mL/min/kg
Tmax [8]: 1.25 h
Cmax [9]: 106 ng/mL
Cmax [10]: 83.8 ng/mL
bioavailability [11]: 80%
Vz [12]: 7.9 L/kg
Tmax [13]: 1.55 h
Ratio EC50 [14]: 3
CL/F [15]: 41 mL/min/kg
Activity [3]: Dose-dependent effect
EC50 [3]: 86 nM
AUC(0-inf) [16]: 213 ng·h/mL
half-life [17]: 1.75 h
Vz [18]: 6.38 L/kg
Tmax [19]: 0.75 h
CL/F [20]: 96 mL/min/kg
half-life [21]: 3.77 h
Activity [4]: Active
Tmax [22]: 0.6 h
Cmax [23]: 72.4 ng/mL
AUC(0-inf) [24]: 373 ng·h/mL
AUC(0-inf) [25]: 874 ng·h/mL
CL/F [26]: 42.3 mL/min/kg
half-life [27]: 3.24 h
AUC(0-inf) [28]: 198 ng·h/mL
Vz [29]: 43.47 L/kg
half-life [30]: 2.04 h
EC50 [1]: 110 nM
Cmax [31]: 175 ng/mL
Activity [2]: 87%
Vz [32]: 41.14 L/kg
Emax [5]: 60%
Activity [6]: Active

CCN(C(=O)OC(C)C)c1c(N)nc(-c2nn(Cc3cccnc3F)c3ncccc23)nc1N
Activity [2]: 9%

COC(=O)N(C)c1c(N)nc(-c2nn(Cc3cncc(C)c3)c3ncccc23)nc1N
Activity [2]: 31%

CC(C)OC(=O)N(C)c1c(N)nc(-c2nn(Cc3ccc(F)s3)c3ncccc23)nc1N
Activity [2]: 38.1%

CCN(C(=O)OC)c1c(N)nc(-c2nn(Cc3sccc3F)c3ncccc23)nc1N
Activity [3]: Dose-dependent effect
EC50 [3]: 180 nM
Activity [4]: Active
EC50 [1]: 210 nM
Activity [2]: 85.4%
Emax [5]: 60%
Activity [6]: Active

Cc1cncc(Cn2nc(-c3nc(N)c(N(C)C(=O)OC(C)C)c(N)n3)c3cccnc32)c1
Activity [2]: 32.4%

CCN(C(=O)OC)c1c(N)nc(-c2nn(Cc3cncc(C)c3)c3ncccc23)nc1N
Activity [2]: 2.8%

COC(=O)Nc1c(N)nc(-c2nn(Cc3sccc3F)c3ncccc23)nc1N
Activity [2]: 14.3%

CCN(C(=O)OC(C)C)c1c(N)nc(-c2nn(Cc3cncc(C)c3)c3ncccc23)nc1N
Activity [2]: 0%
